According to publication PMC11714206, “Massively Parallel Screening of Toll/Interleukin‐1 Receptor (TIR)‐Derived Peptides Reveals Multiple Toll‐Like Receptors (TLRs)‐Targeting Immunomodulatory Peptides” (Advanced Science, 2024):

Target: T1, MAL^TIR (Homo sapiens, UniProt P58753)
T1 construct: MAL (residues 79–221); 6xHis; made in house; host or cells: E. coli BL21 (DE3)
Assay: T‐Surf phage library (P8 and P3) selection against MAL^TIR, four rounds, NGS read counts
Assay type: binding
Conditions: for P3_MAL Rank (after) / P3_MAL Rank (before): P3 library; for P8_MAL Rank (after) / P8_MAL Rank (before): P8 library; for Population: 4th round of selection against MAL TIR, share of NGS reads
Procedure, shortened: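 P8 and P3 T‐Surf libraries panned against plate-coated TIR domains (5 µg mL^−1), 1 h binding at RT, acid elution and TG1/helper-phage amplification per round. After four rounds, pools were PCR-barcoded and sequenced (NovaSeq, 100 bp paired-end, Phred ≥30); peptides ranked by read counts.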

[1] = 4R selection against MAL, rank after grouping
[2] = 4R selection against MAL, rank before grouping
[3] = selection against MAL TIR, rank by count after grouping
[4] = selection against MAL TIR, rank by count before grouping
[5] = selection against MAL, rank by count after grouping
[6] = selection against MAL, rank by count before grouping
[7] = selection against MAL, rank after grouping
[8] = selection against MAL, rank before grouping
[9] = P3_MAL: rank by count after grouping
[10] = P3_MAL: rank by count before grouping
[11] = P8_MAL: rank by count after grouping
[12] = P8_MAL: rank by count before grouping
[13] = P8_MAL pool: P8 T-Surf phage library
[14] = P3_MAL pool: P3 T-Surf phage library

T1 sequence (P58753 79-221): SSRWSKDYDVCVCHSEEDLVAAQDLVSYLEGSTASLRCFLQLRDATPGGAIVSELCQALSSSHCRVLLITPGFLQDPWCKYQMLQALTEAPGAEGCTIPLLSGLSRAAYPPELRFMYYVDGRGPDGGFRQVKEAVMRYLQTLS

NGHESELIKEIVVTIV
P3_MAL Rank (after) [1]: 647 | P3_MAL Rank (before) [2]: 3257

YAFTGHLHRYLVQRSGI
P3_MAL Rank (after) [3]: 203 | P3_MAL Rank (before) [4]: 733

YAFTGHLHRYLVQRKQI
P3_MAL Rank (after) [5]: 752 | P3_MAL Rank (before) [6]: 1404

WFYESLVSLLTRDTKV
P8_MAL Rank (after) [7]: 547 | P8_MAL Rank (before) [8]: 1298

YAFTGHRHRYLVKRGV
Rank (after) [9]: 179 | Rank (before) [10]: 1445

WFYESLVSMIMRDTKV
P8_MAL Rank (after) [3]: 213 | P8_MAL Rank (before) [4]: 1303

SLRKNLLSNLIEECKR
P3_MAL Rank (after) [7]: 495 | P3_MAL Rank (before) [8]: 3097

TFLGAQHKTVVRAATH
P8_MAL Rank (after) [7]: 524 | P8_MAL Rank (before) [8]: 2534

SEFIQKIILWMNQQIV
Rank (after) [11]: 441 | Rank (before) [12]: 2482

MFGGDTFHDFLDLISM
P8_MAL Rank (after) [3]: 192 | P8_MAL Rank (before) [4]: 1005

AFLCTFLINLTHNTTF
Rank (after) [11]: 185 | Rank (before) [12]: 1757

CLLKWKEALHQFHSGV
Rank (after) [9]: 447 | Rank (before) [10]: 1216

AFFWAQLKSVLGNPPV
Rank (after) [11]: 424 | Rank (before) [12]: 1661

YAFTDHLHRYLVQRSE
P3_MAL Rank (after) [7]: 555 | P3_MAL Rank (before) [8]: 1462

AFFCAQLKSVLGNPTM
Population [13]: 0.00309%

LNLRTKVLNYLMRTKT
Population [14]: 0.00488%

HFFWIQLKAFWAKPA
Rank (after) [11]: 184 | Rank (before) [12]: 992

RNFVAYLLQALAHKCI
Rank (after) [11]: 420 | Rank (before) [12]: 2221

YFLHSCCLAVRKPSI
Rank (after) [11]: 158 | Rank (before) [12]: 1511

YAFTGHLRRYLVQRGV
Population [14]: 0.00338%

ELFLDQVLAVLVKPTM
P8_MAL Rank (after) [7]: 530 | P8_MAL Rank (before) [8]: 2042

YQWRNALTAAANLRGW
P3_MAL Rank (after) [3]: 238 | P3_MAL Rank (before) [4]: 1525

RNFAGLLYDRLTKWA
P3_MAL Rank (after) [1]: 630 | P3_MAL Rank (before) [2]: 2594

WHLHLRLRMHDLLQQM
P3_MAL Rank (after) [7]: 537 | P3_MAL Rank (before) [8]: 1311

WFYERLVSLLLRDTKV
Population [13]: 0.00309%

RFWERPRYLTPSNNHR
P3_MAL Rank (after) [5]: 769 | P3_MAL Rank (before) [6]: 2322

WFWEKLRYALTAAANLSGW
Rank (after) [9]: 149 | Rank (before) [10]: 501

KLFWEKLKLFLPSLSR
P8_MAL Rank (after) [1]: 657 | P8_MAL Rank (before) [2]: 2687

WFYGRLVSLMLRDAKR
P8_MAL Rank (after) [1]: 595 | P8_MAL Rank (before) [2]: 1130

HLFCIQLKSILGETSF
P8_MAL Rank (after) [7]: 506 | P8_MAL Rank (before) [8]: 2428

WHFHLRLRMLALLQKM
P3_MAL Rank (after) [1]: 582 | P3_MAL Rank (before) [2]: 1294

YNFISHLYAALQRKHVET
P3_MAL Rank (after) [3]: 253 | P3_MAL Rank (before) [4]: 754

SSFREDLWRLRERSKQ
P3_MAL Rank (after) [7]: 491 | P3_MAL Rank (before) [8]: 3187

FLNFRGLDVRNYFLA
Rank (after) [9]: 408 | Rank (before) [10]: 1158

MSHLYQGLKNRGIFT
Rank (after) [9]: 117 | Rank (before) [10]: 254

TFLGHLYNTLVQACIH
P8_MAL Rank (after) [1]: 650 | P8_MAL Rank (before) [2]: 2598

EWILDTEARIWGWRQA
Rank (after) [9]: 452 | Rank (before) [10]: 1992

KNLFNELVRKNLRTFM
Rank (after) [9]: 458 | Rank (before) [10]: 3753

RGFLSHLRHHLQAKD
P3_MAL Rank (after) [1]: 648 | P3_MAL Rank (before) [2]: 2376

PNLGTKTLNYLTRTKT
P3_MAL Rank (after) [5]: 730 | P3_MAL Rank (before) [6]: 2666

SFLYTLLSNLTHPTNF
P8_MAL Rank (after) [3]: 265 | P8_MAL Rank (before) [4]: 1449

RGFLSHLRHHLPAKEH
P3_MAL Rank (after) [3]: 275 | P3_MAL Rank (before) [4]: 2395

AFFWEQLRTVLGKPSI
P8_MAL Rank (after) [3]: 194 | P8_MAL Rank (before) [4]: 1684

RRTFLSHLQHHFASKG
Population [14]: 0.05% | Rank (after) [9]: 98 | Rank (before) [10]: 98

GSIKWRDQHTVHPQSS
P3_MAL Rank (after) [1]: 589 | P3_MAL Rank (before) [2]: 1776

YAFTSHLSRYLVQRGV
P3_MAL Rank (after) [3]: 223 | P3_MAL Rank (before) [4]: 1476
